Measurements reported in patent US8598374B2, “GPR120 receptor agonists and uses thereof” (Metabolex, Inc, priority 2008, dated 2013).
pEC50: −log10 of the molar value.

Biological target: T1, human GPR120 (Homo sapiens, UniProt Q5NUL3)
T1 construct: Flag (DYKDDDDK) (N); host or cells: HEK293 cells co-expressing Gqi5
T1 sequence (Q5NUL3 1-361): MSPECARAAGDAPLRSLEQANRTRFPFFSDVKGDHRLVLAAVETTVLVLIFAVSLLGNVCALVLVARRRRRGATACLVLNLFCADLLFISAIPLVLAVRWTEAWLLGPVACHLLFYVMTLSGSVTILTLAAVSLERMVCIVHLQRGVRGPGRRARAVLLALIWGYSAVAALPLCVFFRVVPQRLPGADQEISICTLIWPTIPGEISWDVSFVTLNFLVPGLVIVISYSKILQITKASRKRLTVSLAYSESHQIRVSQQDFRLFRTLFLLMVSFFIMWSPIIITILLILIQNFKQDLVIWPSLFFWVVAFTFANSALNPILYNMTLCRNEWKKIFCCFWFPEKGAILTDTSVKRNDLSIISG
Experiment: Intracellular Ca2+ assay (FLIPR Calcium 4, Flexstation) in human GPR120 stable cell line
Assay type: cell-based
Conditions: for concentration at which activity reached a maximum: typical value, reference compound; for % Activity (Ex. 25 Reference Compound): % activity at 2.5 μM compared to the maximal activity of the compound of Example 25 at 2.5 μM, HEK293 cells co-expressing Gqi5; for pEC50: human GPR120 stably expressing cells, eight concentrations from 0.00001 to 20 μM
Method: Human GPR120 stable cell line was purchased from Multispan Inc (26219 Eden Landing Road, Hayward, Calif. 94545). This GPR120 cell line was generated in HEK293 cells co-expressing Gqi5. In this cell line, the Flag epitope tag (DYKDDDDK) was fused to the amino terminus of human GPR120 protein.
The concentration of intracellular Ca^2+ was measured as described below. Human GPR120 cells were plated in 96 well plates (Poly-D-Lysine coated black/clear Plate, Greiner Bio-One) at 70,000 cells per well and cultured overnight in conditions of 37° C. and 5% CO2. A Ca^2+ assay dye stock solution was prepared by adding 10 mL of assay buffer (HBSS/20 mM HEPES, pH 7.4) to FLIPR Calcium 4 Assay Bulk Kit (Molecular Devices). The 10 mL of Ca^2+ assay dye solution was prepared by further diluting 0.5 mL of Ca^2+ assay dye stock solution with 10 mL of assay buffer. The medium of the cells was removed and immediately 100 μL of the Ca^2+ assay dye solution was dispensed into each well followed by incubation at 37° C. and 5% CO2 for 50 minutes to incorporate the Ca^2+ dye into the cells. The cell plate was then placed in the Flexstation (Molecular Devices) for 20 minutes at 37° C. Compounds were dissolved in 100% DMSO and diluted to desired concentrations with assay buffer and placed in the Flexstation simultaneously with the cell plate for 20 minute incubation at 37° C. prior to reading. Fluorescence intensity was measured immediately following compound addition (25 μL/well) on the Flexstation at an excitation wavelength of 485 nm and an emission wavelength of 525 with 515 nm auto cutoff. The resulting increase in fluorescence intensities corresponds to increases in intracellular Ca^2+ levels.
Compounds were dissolved in 100% DMSO to a concentration of 20 mM to provide stock solutions. To determine activity against human GPR120, compounds were added with human GPR120 stably expressing cells (described above), at eight desired concentrations ranging from 0.00001 to 20 μM, in 96 well plates and fluorescence intensities were measured for 90 seconds with 2-second intervals. An EC50 value (concentration of the GPR120 agonist where 50% of the agonist's maximal activity is observed) was calculated using the changes (Max-Min) of fluorescence intensity.
To determine percent activity for a tested compound, the fluorescence intensity value obtained at a particular concentration were compared to the maximal fluorescence intensity value obtained for reference compound GW9508 (4-[[(3-phenoxyphenyl)methyl]amino]benzene propanoic acid; British Journal of Pharmacology 2006 148, 619-628) or the compound of Example 25. When GW9508 was used as the reference compound, the maximal activity of GW9508 at 6.7 μM was designated as 100% activity. When the compound of Example 25 was used as the reference compound, the maximal activity of the compound of Example 25 at 2.5 μM was designated as 100% activity. Typically, the GW9508 activity reached a maximum at a concentration of approximately 6.7 μM and typically the compound of Example 25 reached a maximum activity at approximately 2.5 μM.

Compound	% Activity (Ex. 25 Reference Compound)	pEC50	concentration at which activity reached a maximum
4-[[(3-phenoxyphenyl)methyl]amino]benzene propanoic acid [GW9508, reference compound]			approximately 6.7 μM
CC1(C)Cc2cc(F)cc(COc3c(F)cc(CC4CC4C(=O)O)cc3F)c2O1 (single isomer, unassigned) [Example 184A, 2-(3,5-difluoro-4-((5-fluoro-2,2-dimethyl-2,3-dihydrobenzofuran-7-yl)methoxy)benzyl)cyclopropanecarboxylic acid]	95.58%		
CC1(C)Cc2cc(F)cc(COc3c(F)cc(CC4CC4C(=O)O)cc3F)c2O1 (single isomer, unassigned) [Example 184B, 2-(3,5-difluoro-4-((5-fluoro-2,2-dimethyl-2,3-dihydrobenzofuran-7-yl)methoxy)benzyl)cyclopropanecarboxylic acid]	130.66%		
CC1(C)Cc2cccc(COc3c(F)cc(CCC(=O)O)cc3F)c2O1 [Example 25, 3-(4-((2,2-dimethyl-2,3-dihydrobenzofuran-7-yl)methoxy)-3,5-difluorophenyl)propanoic acid]			approximately 2.5 μM
CC(Cc1ccc(OCc2ccc(F)c3c2OC(C)(C)C3)cc1)C(=O)O (stereo not shown) [Example 30, 3-(4-((4-fluoro-2,2-dimethyl-2,3-dihydrobenzofuran-7-yl)methoxy)phenyl)-2-methylpropanoic acid]		5.00 to 6.00	
CC1(C)Cc2c(C(F)(F)F)ccc(COc3c(F)cc(C4CC4C(=O)O)cc3F)c2O1 (stereo not shown) [Example 31, 2-(4-((2,2-dimethyl-4-(trifluoromethyl)-2,3-dihydrobenzofuran-7-yl)methoxy)-3,5-difluorophenyl)cyclopropanecarboxylic acid]		5.00 to 6.00	
CC(Cc1cc(F)c(OCc2ccc(C(F)(F)F)c3c2OC(C)(C)C3)c(F)c1)C(=O)O (stereo not shown) [Example 32, 3-(4-((2,2-dimethyl-4-(trifluoromethyl)-2,3-dihydrobenzofuran-7-yl)methoxy)-3,5-difluorophenyl)-2-methylpropanoic acid]		5.00 to 6.00	
CC(Cc1ccc(OCc2ccc(C(F)(F)F)c3c2OC(C)(C)C3)c(F)c1)C(=O)O (stereo not shown) [Example 33, 3-(4-((2,2-dimethyl-4-(trifluoromethyl)-2,3-dihydrobenzofuran-7-yl)methoxy)-3-fluorophenyl)-2-methylpropanoic acid]		5.00 to 6.00	
CC(Cc1cc(F)c(OCc2c(F)c(F)cc3c2OC(C)(C)C3)c(F)c1)C(=O)O (stereo not shown) [Example 42, 3-(4-((5,6-difluoro-2,2-dimethyl-2,3-dihydrobenzofuran-7-yl)methoxy)-3,5-difluorophenyl)-2-methylpropanoic acid]	140.94%		
CC(Cc1ccc(COc2cccc3c2OC(C)(C)C3)c(F)c1)C(=O)O (stereo not shown) [Example 44, 3-(4-(((2,2-dimethyl-2,3-dihydrobenzofuran-7-yl)oxy)methyl)-3-fluorophenyl)-2-methylpropanoic acid]	157.14%		
CC(Cc1ccc(OCc2cc(F)cc3c2OCOC3)cc1)C(=O)O (stereo not shown) [Example 45, 3-(4-((6-fluoro-4H-benzo[d][1,3]dioxin-8-yl)methoxy)phenyl)-2-methylpropanoic acid]	79.58%		

Continued, in another order:

% Activity (Ex. 25 Reference Compound)	pEC50	Compound	concentration at which activity reached a maximum
103.75%		CC1(C)Cc2cc(F)cc(COc3ccc(C4CC4C(=O)O)cc3)c2O1 (single isomer, unassigned) [Example 131A, 2-(4-((5-fluoro-2,2-dimethyl-2,3-dihydrobenzofuran-7-yl)methoxy)phenyl)cyclopropanecarboxylic acid]	
105.8%		CC1(C)Cc2cc(F)cc(COc3ccc(C4CC4C(=O)O)cc3)c2O1 (single isomer, unassigned) [Example 131B, 2-(4-((5-fluoro-2,2-dimethyl-2,3-dihydrobenzofuran-7-yl)methoxy)phenyl)cyclopropanecarboxylic acid]	
116.46%		CC1(C)Cc2cc(Cl)cc(COc3c(F)cc(C4CC4CC(=O)O)cc3F)c2O1 (stereo not shown) [Example 41, 2-(2-(4-((5-chloro-2,2-dimethyl-2,3-dihydrobenzofuran-7-yl)methoxy)-3,5-difluorophenyl)cyclopropyl)acetic acid]	
113.55%	5.00 to 6.00	Cc1cc(OCc2cc(F)cc3c2OC(C)(C)C3)ccc1CCC(=O)O [Example 46, 3-(4-((5-fluoro-2,2-dimethyl-2,3-dihydrobenzofuran-7-yl)methoxy)-2-methylphenyl)propanoic acid]	
111.18%	5.00 to 6.00	CC1(C)Cc2cc(F)cc(COc3ccc(CCC(=O)O)c(Cl)c3)c2O1 [Example 47, 3-(2-chloro-4-((5-fluoro-2,2-dimethyl-2,3-dihydrobenzofuran-7-yl)methoxy)phenyl)propanoic acid]	
	5.00 to 6.00	CC1(C)Cc2cc(F)cc(COc3ccc(CCC(=O)O)c(F)c3)c2O1 [Example 48, 3-(2-fluoro-4-((5-fluoro-2,2-dimethyl-2,3-dihydrobenzofuran-7-yl)methoxy)phenyl)propanoic acid]	
	5.00 to 6.00	CC1(C)Cc2cc(F)cc(COc3cc(F)c(CCC(=O)O)c(F)c3)c2O1 [Example 49, 3-(2,6-difluoro-4-((5-fluoro-2,2-dimethyl-2,3-dihydrobenzofuran-7-yl)methoxy)phenyl)propanoic acid]	
129.78%	5.00 to 6.00	COc1cc(OCc2cc(F)cc3c2OC(C)(C)C3)ccc1CCC(=O)O [Example 50, 3-(4-((5-fluoro-2,2-dimethyl-2,3-dihydrobenzofuran-7-yl)methoxy)-2-methoxyphenyl)propanoic acid]	
	5.00 to 6.00	Cc1cc(OCc2cc(Cl)cc3c2OC(C)(C)C3)ccc1CCC(=O)O [Example 51, 3-(4-((5-chloro-2,2-dimethyl-2,3-dihydrobenzofuran-7-yl)methoxy)-2-methylphenyl)propanoic acid]	
	5.00 to 6.00	CC1(C)Cc2cc(Cl)cc(COc3ccc(CCC(=O)O)c(Cl)c3)c2O1 [Example 52, 3-(2-chloro-4-((5-chloro-2,2-dimethyl-2,3-dihydrobenzofuran-7-yl)methoxy)phenyl)-propanoic acid]	
143.19%	5.00 to 6.00	CC1(C)Cc2cc(Cl)cc(COc3ccc(CCC(=O)O)c(F)c3)c2O1 [Example 53, 3-(4-((5-chloro-2,2-dimethyl-2,3-dihydrobenzofuran-7-yl)methoxy)-2-fluorophenyl)-propanoic acid]	
138.97%	5.00 to 6.00	CC1(C)Cc2cc(Cl)cc(COc3cc(F)c(CCC(=O)O)c(F)c3)c2O1 [Example 54, 3-(4-((5-chloro-2,2-dimethyl-2,3-dihydrobenzofuran-7-yl)methoxy)-2,6-difluorophenyl)propanoic acid]	
	5.00 to 6.00	COc1cc(OCc2cc(Cl)cc3c2OC(C)(C)C3)ccc1CCC(=O)O [Example 55, 3-(4-((5-chloro-2,2-dimethyl-2,3-dihydrobenzofuran-7-yl)methoxy)-2-methoxyphenyl)propanoic acid]	
108.51%	5.00 to 6.00	COc1cc(CCC(=O)O)c(Br)cc1OCc1cc(F)cc2c1OC(C)(C)C2 [Example 56, 3-(2-bromo-4-((5-fluoro-2,2-dimethyl-2,3-dihydrobenzofuran-7-yl)methoxy)-5-methoxyphenyl)propanoic acid]	
